Reference: US9580390B2, “Indazole compounds as kinase inhibitors and method of treating cancer with same” (University Health Network, priority 2011, dated 2017)

Tests used:
[1] = tested on: ovarian cancer cells (PA-1); test: Cancer cell line growth inhibition (SRB assay); assay type: cell-based; details: Homo sapiens, PA-1; read-out: Cancer Cell Line GI50 Range PA-1
human TTK = biological target: T1, human TTK (Homo sapiens, UniProt P33981); test: TTK inhibition assay (indirect ELISA); assay type: biochemical; details: read-out: TTK IC50 Range
T1 construct: amino terminal GST fusion of full length human TTK; purchased Invitrogen
T1 sequence (P33981 1-857): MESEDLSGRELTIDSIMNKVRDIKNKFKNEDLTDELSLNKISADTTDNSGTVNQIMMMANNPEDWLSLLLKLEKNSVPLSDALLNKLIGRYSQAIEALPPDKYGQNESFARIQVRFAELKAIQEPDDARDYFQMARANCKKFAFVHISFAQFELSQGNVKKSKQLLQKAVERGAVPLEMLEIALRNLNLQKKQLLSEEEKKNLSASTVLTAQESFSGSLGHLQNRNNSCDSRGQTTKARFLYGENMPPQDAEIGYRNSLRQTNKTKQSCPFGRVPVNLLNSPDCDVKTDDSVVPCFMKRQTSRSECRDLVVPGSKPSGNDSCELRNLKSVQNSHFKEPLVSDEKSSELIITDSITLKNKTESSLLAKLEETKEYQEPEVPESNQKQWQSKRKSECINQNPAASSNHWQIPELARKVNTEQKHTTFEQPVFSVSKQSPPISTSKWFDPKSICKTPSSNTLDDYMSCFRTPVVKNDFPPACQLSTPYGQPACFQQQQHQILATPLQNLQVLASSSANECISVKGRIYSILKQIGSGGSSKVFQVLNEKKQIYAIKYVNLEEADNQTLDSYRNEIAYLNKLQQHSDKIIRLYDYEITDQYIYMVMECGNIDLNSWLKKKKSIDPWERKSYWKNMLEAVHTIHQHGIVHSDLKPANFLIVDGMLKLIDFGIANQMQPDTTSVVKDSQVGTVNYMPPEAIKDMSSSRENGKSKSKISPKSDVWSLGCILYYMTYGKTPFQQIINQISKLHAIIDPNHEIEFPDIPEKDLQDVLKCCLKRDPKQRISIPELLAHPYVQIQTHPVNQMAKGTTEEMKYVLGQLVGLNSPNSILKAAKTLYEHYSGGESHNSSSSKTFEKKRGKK

TICs (Ovarian 2393A) = test: Ovarian tumor-initiating cell growth inhibition (Alamar Blue); assay type: cell-based; details: 144 h; Ovarian 2393A TICs, 6 days; read-out: Tumor Initiating Cell GI50 Range Ovarain 2393A
TICs (Colon 12) = test: Colon tumor-initiating cell growth inhibition (Alamar Blue); assay type: cell-based; details: 216 h; Colon 12 TICs, 9 days; read-out: Tumor Initiating Cell GI50 Range Colon 12
Text: Materials and Methods: Non-tissue or tissue cultured treated T-75 flask and 96-well plates were purchased from VWR. Vitamin B-27 supplement, MEM NEAA (minimum essential medium non essential amino acids), sodium pyruvate, L-glutamine, N2 supplement, penicillin-streptomycin and fungizone/amphotericin B were obtained from Invitrogen. Lipid mixture, heparin and EGF were purchased from Sigma; bFGF from BD Biosciences. Tumor Initiating Cells (TICs) from colon were routinely maintained using non-tissue cultured treated T-75 flasks in DMEM:F12 medium containing 0.2×B-27 supplement, 4 ug/ml heparin, 1×MEM NEAA, 1× sodium pyruvate, 1 mM glutamine, 10 pg/ul bFGF, 20 pg/ul EGF, 1×N2 supplement, lipid mixture, penicillin-streptomycin and fungizone/amphotericin B. Ovarian TICs were routinely maintained using tissue cultured treated T-75 flasks in DMEM:F12 medium containing 1×B-27 supplement, 4 ug/ml heparin, 20 pg/ul bFGF, 20 pg/ul EGF and penicillin-streptomycin.
Assay Protocol: Compounds described herein were dissolved in DMSO and further diluted in cell culture medium for GI50 determination. Colon TICs were trypsinized and seeded into non-tissue cultured treated 96-well plates with 4,000 cells/well. After 24 h, compound was added into the cell culture at different concentrations, and the final concentration of DMSO was adjusted to 0.1%. Cells were then cultured at 37° C. for 9 days. Ovarian TICs were trypsinized and seeded into tissue cultured treated 96-well plates with 1,000 cells/well. After 24 h, compound was added into the cell culture at different concentrations, and the final concentration of DMSO was adjusted to 0.1%. Cells were then cultured at 37° C. for 6 days. Cell viability was assessed by Alamar Blue assay: 10 ul of Alamar Blue was added into each well. After 4 hours incubation at 37° C., fluorescence was recorded at excitation 544 and emission 590. GI50 (Growth inhibition) was calculated using GraphPad Prism 4.0 software.

Breast cancer cells = test: Cancer cell line growth inhibition (SRB assay); assay type: cell-based; details: Homo sapiens; MDA-MB-468; read-out: Cancer Cell Line GI50 Range MDA-MB-468
[2] = tested on: colon cancer cells (HCT116); test: Cancer cell line growth inhibition (SRB assay); assay type: cell-based; details: Homo sapiens, HCT-116; read-out: Cancer Cell Line GI50 Range HCT116
human PLK4 = biological target: T2, human PLK4 (Homo sapiens, UniProt O00444); test: PLK4 inhibition assay (indirect ELISA); assay type: biochemical; details: 15 μM ATP
T2 construct: amino terminal GST fusion of residues 1-391 of human PLK4; made in house; host or cells: E. coli
T2 sequence (O00444 1-391): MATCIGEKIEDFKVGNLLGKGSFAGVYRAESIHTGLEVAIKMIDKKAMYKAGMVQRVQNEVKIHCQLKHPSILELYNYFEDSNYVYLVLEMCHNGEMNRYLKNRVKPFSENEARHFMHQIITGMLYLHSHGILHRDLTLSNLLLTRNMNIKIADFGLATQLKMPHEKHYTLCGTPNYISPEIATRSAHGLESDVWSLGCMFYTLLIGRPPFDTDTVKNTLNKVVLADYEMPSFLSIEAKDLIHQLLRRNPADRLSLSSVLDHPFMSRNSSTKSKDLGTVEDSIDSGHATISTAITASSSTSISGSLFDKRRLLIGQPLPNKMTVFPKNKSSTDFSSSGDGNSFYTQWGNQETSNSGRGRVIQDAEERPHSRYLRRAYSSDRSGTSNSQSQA
How it was run: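 Dephosphorylated GST-PLK4 (residues 1-391, E. coli; 4 nM) was preincubated 15 min with compound, then reacted 30 min with 15 μM ATP in HEPES pH 7.4, MgCl2, Brij 35 on MBP-coated plates. Phospho-MBP was detected by antibody/HRP ELISA at 450 nm; IC50 from 10-point titration by 4-parameter logistic fit, or single 10 μM % inhibition.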

Work on `CN1C2CCC1CC(Oc1ccc(-c3n[nH]c4ccc(C(=O)N[C@@H](c5ccccc5Cl)C5CC5)cc34)cc1)C2` (stereo partly drawn) [Example A234, N-((R)-(2-chlorophenyl)(cyclopropyl)methyl)-3-(4-(((1R,3R,5S)-8-methyl-8-azabicyclo[3.2.1]octan-3-yl)oxy)phenyl)-1H-indazole-5-carboxamide] yielded a GI50 [1] of less than 100 nM, an IC50 (human TTK) of less than 100 nM and a GI50 (TICs (Ovarian 2393A)) of 100 to 500 nM. The GI50 (TICs (Colon 12)) was 100 to 500 nM, the GI50 (Breast cancer cells) was 100 to 500 nM and the GI50 [2] was less than 100 nM. For the same compound, the IC50 (human PLK4) was less than 50 nM.
Work on `CN1C2CCC1CC(Oc1ccc(-c3n[nH]c4ccc(C(=O)N[C@H](c5ccccc5Cl)C5CC5)cc34)cc1)C2` (stereo partly drawn) [Example A235, N-((S)-(2-chlorophenyl)(cyclopropyl)methyl)-3-(4-(((1R,3R,5S)-8-methyl-8-azabicyclo[3.2.1]octan-3-yl)oxy)phenyl)-1H-indazole-5-carboxamide] yielded a GI50 [1] of less than 100 nM, an IC50 (human TTK) of less than 100 nM and a GI50 (TICs (Ovarian 2393A)) of less than 100 nM. For the same compound, the GI50 (TICs (Colon 12)) was less than 100 nM, the GI50 (Breast cancer cells) was less than 100 nM and the GI50 [2] was less than 100 nM. For the same compound, the IC50 (human PLK4) was less than 50 nM.
With `CC(C)[C@@H](NC(=O)c1ccc2[nH]nc(-c3ccc(OC4CC5CCC(C4)N5C)cc3)c2c1)c1ccccc1Cl` (stereo partly drawn) [Example A288, N-((R)-1-(2-chlorophenyl)-2-methylpropyl)-3-(4-(((1R,3R,5S)-8-methyl-8-azabicyclo[3.2.1]octan-3-yl)oxy)phenyl)-1H-indazole-5-carboxamide] the GI50 [1] was 100 to 500 nM, the IC50 (human TTK) was less than 100 nM and the GI50 (TICs (Ovarian 2393A)) was 100 to 500 nM. For the same compound, the GI50 (TICs (Colon 12)) was 100 to 500 nM, the GI50 (Breast cancer cells) was 100 to 500 nM and the GI50 [2] was less than 100 nM. The IC50 (human PLK4) was less than 50 nM.
With `CC(C)[C@H](NC(=O)c1ccc2[nH]nc(-c3ccc(OC4CC5CCC(C4)N5C)cc3)c2c1)c1ccccc1Cl` (stereo partly drawn) [Example A287, N-((S)-1-(2-chlorophenyl)-2-methylpropyl)-3-(4-(((1R,3R,5S)-8-methyl-8-azabicyclo[3.2.1]octan-3-yl)oxy)phenyl)-1H-indazole-5-carboxamide] the GI50 [1] was less than 100 nM, the IC50 (human TTK) was less than 100 nM and the GI50 (TICs (Ovarian 2393A)) was 100 to 500 nM. The GI50 (TICs (Colon 12)) was 100 to 500 nM, the GI50 (Breast cancer cells) was less than 100 nM and the GI50 [2] was less than 100 nM. The IC50 (human PLK4) was less than 50 nM.
`CC(C)[C@H](NC(=O)c1ccc2[nH]nc(-c3ccc(OC4CC5CCC(C4)N5CCO)cc3)c2c1)c1ccccc1Cl` (stereo partly drawn) [Example A337, N-((S)-1-(2-chlorophenyl)-2-methylpropyl)-3-(4-(((1R,3R,5S)-8-(2-hydroxyethyl)-8-azabicyclo[3.2.1]octan-3-yl)oxy)phenyl)-1H-indazole-5-carboxamide] gave a GI50 [1] of less than 100 nM, an IC50 (human TTK) of less than 100 nM and a GI50 (TICs (Ovarian 2393A)) of less than 100 nM. For the same compound, the GI50 (TICs (Colon 12)) was less than 100 nM, the GI50 (Breast cancer cells) was less than 100 nM and the GI50 [2] was less than 100 nM. It also gave an IC50 (human PLK4) of less than 50 nM.
In the case of `C[C@@H](O)CN1CCC(Oc2ccc(-c3n[nH]c4ccc(C(=O)N[C@@H](c5ccsc5)C5CCCC5)cc34)cc2)CC1` [Example A222, N-((R)-cyclopentyl(thiophen-3-yl)methyl)-3-(4-((1-((R)-2-hydroxypropyl)piperidin-4-yl)oxy)phenyl)-1H-indazole-5-carboxamide], the GI50 [1] is reported as less than 100 nM, the IC50 (human TTK) is reported as less than 100 nM and the GI50 (TICs (Ovarian 2393A)) is reported as 100 to 500 nM. For the same compound, the GI50 (TICs (Colon 12)) was less than 100 nM, the GI50 (Breast cancer cells) was 100 to 500 nM and the GI50 [2] was less than 100 nM. The IC50 (human PLK4) was less than 50 nM.
`CC(C)[C@@H](NC(=O)c1ccc2[nH]nc(-c3ccc(OC4CCN(C)CC4)cc3)c2c1)c1ccccc1Cl` [Example A274, (R)-N-(1-(2-chlorophenyl)-2-methylpropyl)-3-(4-((1-methylpiperidin-4-yl)oxy)phenyl)-1H-indazole-5-carboxamide] was tested, and the GI50 [1] was 100 to 500 nM, the IC50 (human TTK) was less than 100 nM and the GI50 (TICs (Ovarian 2393A)) was 100 to 500 nM. The GI50 (TICs (Colon 12)) was 100 to 500 nM, the GI50 (Breast cancer cells) was greater than 500 nM and the GI50 [2] was 100 to 500 nM. The IC50 (human PLK4) was less than 50 nM.
Compound `CC(C)CC(NC(=O)c1ccc2[nH]nc(-c3ccc(N4CCN(C5COC5)CC4)cc3)c2c1)c1ccccc1Cl` (stereo not shown) [Example A298, N-(1-(2-chlorophenyl)-3-methylbutyl)-3-(4-(4-(oxetan-3-yl)piperazin-1-yl)phenyl)-1H-indazole-5-carboxamide] has a GI50 [1] of less than 100 nM, an IC50 (human TTK) of less than 100 nM and a GI50 (TICs (Ovarian 2393A)) of less than 100 nM. For the same compound, the GI50 (TICs (Colon 12)) was less than 100 nM, the GI50 (Breast cancer cells) was less than 100 nM and the GI50 [2] was less than 100 nM. The IC50 (human PLK4) was less than 50 nM.
`CN1C2CCC1CC(Oc1ccc(-c3n[nH]c4ccc(C(=O)N[C@@H](c5ccsc5)C5CCCC5)cc34)cc1)C2` (stereo partly drawn) [Example A247, N-((R)-cyclopentyl(thiophen-3-yl)methyl)-3-(4-(((1R,3R,5S)-8-methyl-8-azabicyclo[3.2.1]octan-3-yl)oxy)phenyl)-1H-indazole-5-carboxamide] showed a GI50 [1] of 100 to 500 nM, an IC50 (human TTK) of less than 100 nM and a GI50 (TICs (Ovarian 2393A)) of 100 to 500 nM. For the same compound, the GI50 (TICs (Colon 12)) was 100 to 500 nM, the GI50 (Breast cancer cells) was 100 to 500 nM and the GI50 [2] was 100 to 500 nM. The IC50 (human PLK4) was less than 50 nM.
Work on `CC(C)C[C@H](NC(=O)c1ccc2[nH]nc(-c3ccc(OC4CC5CCC(C4)N5C=O)cc3)c2c1)c1ccccn1` (stereo partly drawn) [Example A358, 3-(4-(((1R,3R,5S)-8-formyl-8-azabicyclo[3.2.1]octan-3-yl)oxy)phenyl)-N-((S)-3-methyl-1-(pyridin-2-yl)butyl)-1H-indazole-5-carboxamide] yielded a GI50 [1] of less than 100 nM, an IC50 (human TTK) of less than 100 nM and a GI50 (TICs (Ovarian 2393A)) of less than 100 nM. For the same compound, the GI50 (TICs (Colon 12)) was less than 100 nM, the GI50 (Breast cancer cells) was less than 100 nM and the GI50 [2] was less than 100 nM. For the same compound, the IC50 (human PLK4) was less than 50 nM.
